Measured values as given in paper PMC9283524 (Nature Communications, 2022).
“And” between values parts separate entries of the source, which are not always exact repeats. Identical values can stand only once. Like-named read-outs stand apart in the source and are kept apart here.

What was measured:
turkey β1-AR V326^7.36A = turkey β1-AR V326^7.36A (Meleagris gallopavo, UniProt P07700, V326A); assay: cell-based
Procedure: (§1) CHO cells (transfected with a control empty vector or wild-type or mutant turkey β1-AR) were plated onto six-well plates, and were pre-incubated with culture medium buffered with 0.5 mM IBMX for 30 min at 37 °C[20]. […] After culture medium removal, cells were treated with 0.1 M HCl for 10 minutes at room temperature. After centrifugation, the supernatant was used for cAMP quantification using the Direct Cyclic AMP Enzyme Immunoassay kit (Enzo Life Sciences). […] The cAMP assays were repeated three times, and the data are represented as mean ± SD of the three independent experiments. The analysis was done using the log(agonist) vs. response function of Prism 8 (GraphPad)[20].

turkey β1-AR T203^ECL2A = turkey β1-AR T203^ECL2A (Meleagris gallopavo, UniProt P07700, T203A); assay: cell-based
Procedure: as §1

turkey β1-AR W330^7.40A = turkey β1-AR W330^7.40A (Meleagris gallopavo, UniProt P07700, W330A); assay: cell-based; settings: for cAMP level: Fig 3 source data, W330A
Procedure: as §1

turkey β1-AR W117^3.28A = turkey β1-AR W117^3.28A (Meleagris gallopavo, UniProt P07700, W117A); assay: cell-based
Procedure: as §1

turkey β1-AR L101^2.64A = turkey β1-AR L101^2.64A (Meleagris gallopavo, UniProt P07700, L101A); assay: cell-based
Procedure: as §1

turkey β1-AR Q237^5.68A = turkey β1-AR Q237^5.68A (Meleagris gallopavo, UniProt P07700, Q237A); type: cell-based; settings: for cAMP level: Fig 5c,e source data, Q237A
Procedure: as §1

turkey β1-AR Q150^ICL2A = turkey β1-AR Q150^ICL2A (Meleagris gallopavo, UniProt P07700, Q150A); type: cell-based; settings: for cAMP level: Fig 5c,e source data, Q150A
Procedure: as §1

turkey β1-AR V230^5.61A = turkey β1-AR V230^5.61A (Meleagris gallopavo, UniProt P07700, V230A); type: cell-based; settings: for cAMP level: Fig 5c,e source data, V230A; for cAMP, time course: V2305.61A
Procedure: as §1

turkey β1-AR E233^5.64A = turkey β1-AR E233^5.64A (Meleagris gallopavo, UniProt P07700, E233A); type: cell-based
Procedure: as §1

wild-type turkey β1-AR = wild-type turkey β1-AR (Meleagris gallopavo, UniProt P07700); type: cell-based
Procedure: as §1

turkey β1-AR T291^6.36A = turkey β1-AR T291^6.36A (Meleagris gallopavo, UniProt P07700, T291A); type: cell-based; settings: for cAMP level: Fig 5c,e source data, T291A
Procedure: as §1

turkey β1-AR F147^ICL2A = turkey β1-AR F147^ICL2A (Meleagris gallopavo, UniProt P07700, F147A); type: cell-based
Procedure: as §1

turkey β1-AR P146^ICL2A = turkey β1-AR P146^ICL2A (Meleagris gallopavo, UniProt P07700, P146A); type: cell-based
Procedure: as §1

turkey β1-AR S151^ICL2A = turkey β1-AR S151^ICL2A (Meleagris gallopavo, UniProt P07700, S151A); type: cell-based; settings: for cAMP, time course: S151ICL2A
Procedure: as §1

[1] = test system: ligand-bound nucleotide-free β1-AR–Gs complex; type: biochemical, turkey; settings: ligand at ~EC90; 10 μM BODIPY FL GTPγS; 25 °C; mean ± SD
Description: To investigate whether ligands with different efficacies have different effects on the stability of the intermediate state, we prepared the complex of ligand-bound β1-AR-Gs (nucleotide-free), and quantified the stability of the intermediate state complex (Fig. 7a). Fluorescently labeled BODIPY-GTPγS binding to the ligand-bound β1-AR–Gs (nucleotide-free) complex eventually leads to the dissociation of the complex to produce the fluorescently labeled product Gαs(BODIPY-GTPγS), which is detected by an increase in fluorescence (the β1-AR–Gαs(BODIPY-GTPγS)–Gβγ intermediate is very transient)[31],[35] […] The data were then fitted by nonlinear association analyses and half-life values (t1/2 = ln 2/k) were calculated based on the rate constant (Fig. 7b–e).
The reaction was initiated by adding 10 μM BODIPY™ FL GTPγS (Invitrogen). Relative fluorescence units (RFU) change was measured every 12 s for a total of 60 min at 25 °C. The BODIPY-GTPγS binding data were fitted to one phase exponential association curves using GraphPad Prism 8.

[2] = CHO, 5 min, read-out: Efficacy (% of max cAMP level)

turkey β1-AR V230^5.61A, sequence (P07700 whole entry V230A): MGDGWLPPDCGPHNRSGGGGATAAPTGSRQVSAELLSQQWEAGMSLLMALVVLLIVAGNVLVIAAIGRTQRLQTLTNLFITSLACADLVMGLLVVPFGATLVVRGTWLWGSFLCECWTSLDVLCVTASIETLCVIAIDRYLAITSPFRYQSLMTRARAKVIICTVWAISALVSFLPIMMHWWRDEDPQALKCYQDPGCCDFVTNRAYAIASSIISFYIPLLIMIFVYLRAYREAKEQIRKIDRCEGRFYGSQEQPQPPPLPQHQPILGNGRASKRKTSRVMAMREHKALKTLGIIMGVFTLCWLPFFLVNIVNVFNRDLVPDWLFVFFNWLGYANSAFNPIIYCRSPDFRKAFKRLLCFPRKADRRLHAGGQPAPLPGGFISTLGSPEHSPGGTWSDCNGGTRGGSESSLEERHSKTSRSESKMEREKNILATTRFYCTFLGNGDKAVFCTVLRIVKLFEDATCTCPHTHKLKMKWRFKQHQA
turkey β1-AR W330^7.40A, sequence (P07700 whole entry W330A): as the sequence (P07700 whole entry V230A) above, with A230V, W330A counted along it
turkey β1-AR S151^ICL2A, sequence (P07700 whole entry S151A): as the sequence (P07700 whole entry V230A) above, with S151A, A230V counted along it
turkey β1-AR Q150^ICL2A, sequence (P07700 whole entry Q150A): as the sequence (P07700 whole entry V230A) above, with Q150A, A230V counted along it
turkey β1-AR F147^ICL2A, sequence (P07700 whole entry F147A): as the sequence (P07700 whole entry V230A) above, with F147A, A230V counted along it
turkey β1-AR Q237^5.68A, sequence (P07700 whole entry Q237A): as the sequence (P07700 whole entry V230A) above, with A230V, Q237A counted along it
turkey β1-AR T291^6.36A, sequence (P07700 whole entry T291A): as the sequence (P07700 whole entry V230A) above, with A230V, T291A counted along it
turkey β1-AR V326^7.36A, sequence (P07700 whole entry V326A): as the sequence (P07700 whole entry V230A) above, with A230V, V326A counted along it
turkey β1-AR T203^ECL2A, sequence (P07700 whole entry T203A): as the sequence (P07700 whole entry V230A) above, with T203A, A230V counted along it
turkey β1-AR W117^3.28A, sequence (P07700 whole entry W117A): as the sequence (P07700 whole entry V230A) above, with W117A, A230V counted along it
turkey β1-AR P146^ICL2A, sequence (P07700 whole entry P146A): as the sequence (P07700 whole entry V230A) above, with P146A, A230V counted along it
turkey β1-AR E233^5.64A, sequence (P07700 whole entry E233A): as the sequence (P07700 whole entry V230A) above, with A230V, E233A counted along it
turkey β1-AR L101^2.64A, sequence (P07700 whole entry L101A): as the sequence (P07700 whole entry V230A) above, with L101A, A230V counted along it
wild-type turkey β1-AR, sequence (P07700 whole entry): as the sequence (P07700 whole entry V230A) above, with A230V counted along it

## CC(CCc1ccc(O)cc1)NCCc1ccc(O)c(O)c1 (stereo not shown) [Dobutamine, dobutamine]
Turkey β1-AR V326^7.36A
  EC50: 7.59 µM
Turkey β1-AR V326^7.36A; [2]
  Emax: 38 ± 1.2%
Turkey β1-AR T203^ECL2A
  EC50: 1.58 µM
Turkey β1-AR T203^ECL2A; [2]
  Emax: 99 ± 0.7%
Turkey β1-AR W330^7.40A
  EC50: 2.95 µM
Turkey β1-AR W330^7.40A; [2]
  Emax: 85 ± 0.8%
Turkey β1-AR W330^7.40A; log[ligand] (M) -3
  cAMP level: 346 and 351 and 347
Turkey β1-AR W330^7.40A; log[ligand] (M) -4
  cAMP level: 342 and 348 and 346
Turkey β1-AR W330^7.40A; log[ligand] (M) -5
  cAMP level: 266 and 272 and 271
Turkey β1-AR W330^7.40A; log[ligand] (M) -6
  cAMP level: 127 and 136 and 131
Turkey β1-AR W330^7.40A; log[ligand] (M) -7
  cAMP level: 58 and 65 and 63
Turkey β1-AR W330^7.40A; log[ligand] (M) -8
  cAMP level: 43 and 48
Turkey β1-AR W330^7.40A; log[ligand] (M) -9
  cAMP level: 38 and 45 and 43
Turkey β1-AR W117^3.28A
  EC50: 7.76 µM
Turkey β1-AR W117^3.28A; [2]
  Emax: 16 ± 0.8%
Turkey β1-AR L101^2.64A
  EC50: 6.61 µM
Turkey β1-AR L101^2.64A; [2]
  Emax: 37 ± 1.1%
Turkey β1-AR Q237^5.68A
  EC50: 9.55 µM
Turkey β1-AR Q237^5.68A; [2]
  Emax: 21 ± 1.7%
Turkey β1-AR Q237^5.68A; log[ligand] (M) -3
  cAMP level: 103 and 114 and 116
Turkey β1-AR Q237^5.68A; log[ligand] (M) -4
  cAMP level: 97 and 112 and 118
Turkey β1-AR Q237^5.68A; log[ligand] (M) -5
  cAMP level: 66 and 82 and 77
Turkey β1-AR Q237^5.68A; log[ligand] (M) -6
  cAMP level: 39 and 42
Turkey β1-AR Q237^5.68A; log[ligand] (M) -7
  cAMP level: 36 and 40 and 39
Turkey β1-AR Q237^5.68A; log[ligand] (M) -8
  cAMP level: 34 and 39 and 40
Turkey β1-AR Q237^5.68A; log[ligand] (M) -9
  cAMP level: 32 and 37 and 40
Turkey β1-AR Q150^ICL2A
  EC50: 3.39 µM
Turkey β1-AR Q150^ICL2A; [2]
  Emax: 44 ± 3.5%
Turkey β1-AR Q150^ICL2A; log[ligand] (M) -3
  cAMP level: 192 and 204 and 207
Turkey β1-AR Q150^ICL2A; log[ligand] (M) -4
  cAMP level: 178 and 195 and 219
Turkey β1-AR Q150^ICL2A; log[ligand] (M) -5
  cAMP level: 151 and 169 and 177
Turkey β1-AR Q150^ICL2A; log[ligand] (M) -6
  cAMP level: 58 and 69 and 73
Turkey β1-AR Q150^ICL2A; log[ligand] (M) -7
  cAMP level: 36 and 42 and 43
Turkey β1-AR Q150^ICL2A; log[ligand] (M) -8
  cAMP level: 36 and 40
Turkey β1-AR Q150^ICL2A; log[ligand] (M) -9
  cAMP level: 35 and 37 and 41
Turkey β1-AR V230^5.61A
  EC50: 6.17 µM
Turkey β1-AR V230^5.61A; [2]
  Emax: 36 ± 1.1%
Turkey β1-AR V230^5.61A; log[ligand] (M) -3
  cAMP level: 167 and 175 and 168
Turkey β1-AR V230^5.61A; log[ligand] (M) -4
  cAMP level: 164 and 173 and 169
Turkey β1-AR V230^5.61A; log[ligand] (M) -5
  cAMP level: 121 and 131 and 129
Turkey β1-AR V230^5.61A; log[ligand] (M) -6
  cAMP level: 39 and 44 and 43
Turkey β1-AR V230^5.61A; log[ligand] (M) -7
  cAMP level: 36 and 40 and 38
Turkey β1-AR V230^5.61A; log[ligand] (M) -8
  cAMP level: 35 and 37
Turkey β1-AR V230^5.61A; log[ligand] (M) -9
  cAMP level: 32 and 37 and 36
Turkey β1-AR V230^5.61A; 0 min
  cAMP, time course: 30 and 28 and 33
Turkey β1-AR V230^5.61A; 0.5 min
  cAMP, time course: 32 and 35 and 38
Turkey β1-AR V230^5.61A; 1 min
  cAMP, time course: 34 and 37 and 35
Turkey β1-AR V230^5.61A; 2 min
  cAMP, time course: 45 and 41 and 43
Turkey β1-AR V230^5.61A; 5 min
  cAMP, time course: 126 and 122 and 128
Turkey β1-AR V230^5.61A; 10 min
  cAMP, time course: 106 and 105 and 108
Turkey β1-AR V230^5.61A; 15 min
  cAMP, time course: 61 and 56
Turkey β1-AR V230^5.61A; 20 min
  cAMP, time course: 52 and 50 and 51
Turkey β1-AR V230^5.61A; 25 min
  cAMP, time course: 46 and 44 and 47
Turkey β1-AR V230^5.61A; 30 min
  cAMP, time course: 53 and 47 and 55
Turkey β1-AR E233^5.64A
  EC50: 7.08 µM
Turkey β1-AR E233^5.64A; [2]
  Emax: 41 ± 3.7%
wild-type turkey β1-AR
  EC50: 1.58 µM
wild-type turkey β1-AR; [2]
  Emax: 100%
Turkey β1-AR T291^6.36A
  EC50: 6.61 µM
Turkey β1-AR T291^6.36A; [2]
  Emax: 21 ± 1.7%
Turkey β1-AR T291^6.36A; log[ligand] (M) -3
  cAMP level: 106 and 116 and 114
Turkey β1-AR T291^6.36A; log[ligand] (M) -4
  cAMP level: 100 and 115 and 113
Turkey β1-AR T291^6.36A; log[ligand] (M) -5
  cAMP level: 82 and 86 and 83
Turkey β1-AR T291^6.36A; log[ligand] (M) -6
  cAMP level: 40 and 42 and 41
Turkey β1-AR T291^6.36A; log[ligand] (M) -7
  cAMP level: 38 and 39
Turkey β1-AR T291^6.36A; log[ligand] (M) -8
  cAMP level: 34 and 39
Turkey β1-AR T291^6.36A; log[ligand] (M) -9
  cAMP level: 34 and 36 and 38
Turkey β1-AR F147^ICL2A
  EC50: 11.5 µM
Turkey β1-AR F147^ICL2A; [2]
  Emax: 17 ± 0.2%
Turkey β1-AR F147^ICL2A; Fig 5c,e source data, F147A, log[ligand] (M) -9
  cAMP level: 32
Turkey β1-AR P146^ICL2A
  EC50: 4.07 µM
Turkey β1-AR P146^ICL2A; [2]
  Emax: 38 ± 2.4%
Turkey β1-AR S151^ICL2A
  EC50: 10.5 µM
Turkey β1-AR S151^ICL2A; [2]
  Emax: 38 ± 1.6%
Turkey β1-AR S151^ICL2A; 0 min
  cAMP, time course: 33 and 34 and 31
Turkey β1-AR S151^ICL2A; 0.5 min
  cAMP, time course: 39 and 36 and 32
Turkey β1-AR S151^ICL2A; 1 min
  cAMP, time course: 38 and 36
Turkey β1-AR S151^ICL2A; 2 min
  cAMP, time course: 41 and 45 and 47
Turkey β1-AR S151^ICL2A; 5 min
  cAMP, time course: 104 and 103
Turkey β1-AR S151^ICL2A; 10 min
  cAMP, time course: 98 and 96 and 94
Turkey β1-AR S151^ICL2A; 15 min
  cAMP, time course: 58 and 63 and 55
Turkey β1-AR S151^ICL2A; 20 min
  cAMP, time course: 48 and 49 and 46
Turkey β1-AR S151^ICL2A; 25 min
  cAMP, time course: 44 and 46 and 42
Turkey β1-AR S151^ICL2A; 30 min
  cAMP, time course: 42 and 49 and 46
[1]
  Complex half-life: 6.9 ± 0.6 min
